In patent US10934274B2, “Quinoline derivatives as TAM RTK inhibitors” (Qurient Co., Ltd., priority 2015, dated 2021):

Assays:
Axl = target: T1, Axl (Homo sapiens, UniProt P30530); assay: LanthaScreen Eu kinase binding assay, Axl; conditions: Tracer 236
T1 construct: purchased Life Technologies
T1 sequence (P30530 26-894): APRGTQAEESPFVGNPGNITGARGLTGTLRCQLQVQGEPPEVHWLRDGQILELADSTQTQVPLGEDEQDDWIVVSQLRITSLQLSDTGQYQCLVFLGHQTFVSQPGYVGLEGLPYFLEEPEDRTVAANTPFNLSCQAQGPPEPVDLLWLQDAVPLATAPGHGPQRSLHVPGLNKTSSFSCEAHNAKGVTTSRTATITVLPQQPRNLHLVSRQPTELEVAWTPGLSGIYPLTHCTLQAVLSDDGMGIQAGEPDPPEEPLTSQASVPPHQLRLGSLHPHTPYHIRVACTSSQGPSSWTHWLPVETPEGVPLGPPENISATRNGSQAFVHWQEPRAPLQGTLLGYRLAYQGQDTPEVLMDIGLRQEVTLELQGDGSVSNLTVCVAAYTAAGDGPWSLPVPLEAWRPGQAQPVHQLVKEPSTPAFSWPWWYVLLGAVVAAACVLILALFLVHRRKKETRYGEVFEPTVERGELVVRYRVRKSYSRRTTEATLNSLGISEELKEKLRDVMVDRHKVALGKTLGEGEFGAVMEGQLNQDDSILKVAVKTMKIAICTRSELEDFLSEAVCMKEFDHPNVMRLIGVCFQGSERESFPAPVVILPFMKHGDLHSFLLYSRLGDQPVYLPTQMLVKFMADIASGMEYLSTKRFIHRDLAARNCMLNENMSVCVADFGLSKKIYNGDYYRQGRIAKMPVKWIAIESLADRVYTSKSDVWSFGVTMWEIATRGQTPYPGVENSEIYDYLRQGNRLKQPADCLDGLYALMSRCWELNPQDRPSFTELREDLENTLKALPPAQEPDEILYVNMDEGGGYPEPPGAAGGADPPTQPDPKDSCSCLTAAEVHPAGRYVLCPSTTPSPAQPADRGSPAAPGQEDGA
Protocol: (§1) LanthaScreen® Eu Kinase Binding assays were conducted at Life Technologies using the manufacturer's specifications for each kinase indicated.
(§2) Briefly, the principle behind this assay is based upon the binding and displacement of an Alexa Fluor 647-labeled tracer to the kinase of interest. Binding of the tracer to the kinase is detected using an EU-labeled anti-tag antibody. Simultaneous binding of both the tracer and antibody to the kinase gives rise to a FRET-signal. Binding of an inhibitor to the kinase competes for binding with the tracer, resulting in a loss of FRET-signal.
(§3) Binding Assay Protocol for AXL, Mer, Tyro3 and Met
(§4) A given compound was diluted in DMSO to make a stock compound solution. The stock compound solution was serially diluted over eight steps in DMSO. Each diluted compound solution in DMSO was diluted in kinase buffer. Afterwards four kinds of working solution were prepared. First, Tracer-Working solution consists of Tracer 236 and Kinase Buffer. Second, Axl, Mer, Tyro3 or Met/anti-GST-AB-Working solution contained one of the kinases Axl, Mer, Tyro3, Met or anti-GST-AB (=anti glutathione-S-transferase antibody) in Kinase Buffer. Third, anti-GST-AB-Working solution was made with anti-GST-AB and Kinase Buffer. Last, in the DMSO-Working solution DMSO was added to Kinase Buffer to a final concentration to 3%. Each of the four kinds of working solutions were separately added to the assay plate and then incubated for 1 h at room temperature. After incubation, the assay plate was measured with respect to the FRET-Signal with the EnVision (Perkin Elmer) using the program LanthaHTRF-Assay. Data evaluation was done in the Quattro Workflow software.
(§5) Table 1 summarises the results obtained for AXL, Mer and Tyro3-kinases binding assays; table 2 summarises the results obtained for the Met kinase binding assay.

Mer = target: T2, Mer (Homo sapiens, UniProt Q12866); assay: LanthaScreen Eu kinase binding assay, Mer; conditions: Tracer 236
T2 construct: purchased Life Technologies
T2 sequence (Q12866 21-999): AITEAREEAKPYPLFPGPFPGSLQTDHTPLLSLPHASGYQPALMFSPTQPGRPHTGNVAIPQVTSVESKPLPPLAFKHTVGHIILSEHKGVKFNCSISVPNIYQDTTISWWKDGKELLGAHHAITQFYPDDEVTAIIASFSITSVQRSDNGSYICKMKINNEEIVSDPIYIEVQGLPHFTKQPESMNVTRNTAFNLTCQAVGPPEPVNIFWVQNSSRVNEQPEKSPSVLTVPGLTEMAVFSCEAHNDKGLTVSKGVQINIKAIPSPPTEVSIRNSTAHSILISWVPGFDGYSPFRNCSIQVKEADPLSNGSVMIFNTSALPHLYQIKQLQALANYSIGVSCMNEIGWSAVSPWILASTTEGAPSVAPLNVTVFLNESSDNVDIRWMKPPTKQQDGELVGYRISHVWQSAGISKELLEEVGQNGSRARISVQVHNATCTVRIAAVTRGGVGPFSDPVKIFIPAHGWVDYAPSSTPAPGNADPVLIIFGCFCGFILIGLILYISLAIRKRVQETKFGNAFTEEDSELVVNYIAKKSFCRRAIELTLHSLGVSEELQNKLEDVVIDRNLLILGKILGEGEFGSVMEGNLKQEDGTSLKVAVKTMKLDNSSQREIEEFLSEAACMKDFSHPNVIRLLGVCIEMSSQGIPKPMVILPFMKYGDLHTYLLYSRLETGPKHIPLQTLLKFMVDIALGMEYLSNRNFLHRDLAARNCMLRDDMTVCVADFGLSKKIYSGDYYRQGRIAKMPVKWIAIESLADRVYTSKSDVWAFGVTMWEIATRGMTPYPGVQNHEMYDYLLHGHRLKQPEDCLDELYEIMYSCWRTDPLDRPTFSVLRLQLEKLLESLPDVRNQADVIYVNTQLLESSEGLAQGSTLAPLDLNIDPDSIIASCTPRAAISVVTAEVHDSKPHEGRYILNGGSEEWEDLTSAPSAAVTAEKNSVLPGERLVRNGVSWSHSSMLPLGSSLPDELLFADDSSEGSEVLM
Protocol: as §1, §2, §3, §4, §5

TYRO3 = target: T3, TYRO3 (Homo sapiens, UniProt Q06418); assay: LanthaScreen Eu kinase binding assay, TYRO3; conditions: Tracer 236
T3 construct: purchased Life Technologies
T3 sequence (Q06418 41-890): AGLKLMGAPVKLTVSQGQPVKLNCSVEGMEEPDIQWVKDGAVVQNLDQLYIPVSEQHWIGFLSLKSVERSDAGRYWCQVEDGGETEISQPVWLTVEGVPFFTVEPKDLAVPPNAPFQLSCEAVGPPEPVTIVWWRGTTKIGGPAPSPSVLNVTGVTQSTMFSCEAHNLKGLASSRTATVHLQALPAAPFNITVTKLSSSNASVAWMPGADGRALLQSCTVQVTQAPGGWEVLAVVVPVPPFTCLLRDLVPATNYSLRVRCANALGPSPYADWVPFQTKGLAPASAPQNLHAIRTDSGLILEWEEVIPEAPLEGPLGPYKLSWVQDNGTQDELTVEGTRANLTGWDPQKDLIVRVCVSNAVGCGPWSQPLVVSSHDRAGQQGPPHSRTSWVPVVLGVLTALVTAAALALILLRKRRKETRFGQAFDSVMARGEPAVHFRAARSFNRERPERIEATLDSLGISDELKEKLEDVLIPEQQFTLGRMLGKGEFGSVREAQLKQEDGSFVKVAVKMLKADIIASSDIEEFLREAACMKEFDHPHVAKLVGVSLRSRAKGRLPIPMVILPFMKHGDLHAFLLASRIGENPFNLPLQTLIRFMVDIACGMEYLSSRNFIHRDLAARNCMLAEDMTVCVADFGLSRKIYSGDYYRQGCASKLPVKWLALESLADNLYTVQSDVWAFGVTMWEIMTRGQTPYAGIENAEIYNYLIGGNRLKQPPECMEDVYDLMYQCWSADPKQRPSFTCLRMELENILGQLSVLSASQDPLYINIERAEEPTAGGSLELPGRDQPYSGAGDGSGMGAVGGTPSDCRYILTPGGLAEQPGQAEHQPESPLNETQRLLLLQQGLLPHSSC
Protocol: as §1, §2, §3, §4, §5

Met = target: T4, Met (Homo sapiens, UniProt P08581); assay: LanthaScreen Eu kinase binding assay, Met; conditions: Tracer 236, read-out: cMet kinase binding activity (Kd)
T4 construct: purchased Life Technologies
Protocol: as §1, §2, §3, §4, §5

T4 sequence (P08581 25-1390): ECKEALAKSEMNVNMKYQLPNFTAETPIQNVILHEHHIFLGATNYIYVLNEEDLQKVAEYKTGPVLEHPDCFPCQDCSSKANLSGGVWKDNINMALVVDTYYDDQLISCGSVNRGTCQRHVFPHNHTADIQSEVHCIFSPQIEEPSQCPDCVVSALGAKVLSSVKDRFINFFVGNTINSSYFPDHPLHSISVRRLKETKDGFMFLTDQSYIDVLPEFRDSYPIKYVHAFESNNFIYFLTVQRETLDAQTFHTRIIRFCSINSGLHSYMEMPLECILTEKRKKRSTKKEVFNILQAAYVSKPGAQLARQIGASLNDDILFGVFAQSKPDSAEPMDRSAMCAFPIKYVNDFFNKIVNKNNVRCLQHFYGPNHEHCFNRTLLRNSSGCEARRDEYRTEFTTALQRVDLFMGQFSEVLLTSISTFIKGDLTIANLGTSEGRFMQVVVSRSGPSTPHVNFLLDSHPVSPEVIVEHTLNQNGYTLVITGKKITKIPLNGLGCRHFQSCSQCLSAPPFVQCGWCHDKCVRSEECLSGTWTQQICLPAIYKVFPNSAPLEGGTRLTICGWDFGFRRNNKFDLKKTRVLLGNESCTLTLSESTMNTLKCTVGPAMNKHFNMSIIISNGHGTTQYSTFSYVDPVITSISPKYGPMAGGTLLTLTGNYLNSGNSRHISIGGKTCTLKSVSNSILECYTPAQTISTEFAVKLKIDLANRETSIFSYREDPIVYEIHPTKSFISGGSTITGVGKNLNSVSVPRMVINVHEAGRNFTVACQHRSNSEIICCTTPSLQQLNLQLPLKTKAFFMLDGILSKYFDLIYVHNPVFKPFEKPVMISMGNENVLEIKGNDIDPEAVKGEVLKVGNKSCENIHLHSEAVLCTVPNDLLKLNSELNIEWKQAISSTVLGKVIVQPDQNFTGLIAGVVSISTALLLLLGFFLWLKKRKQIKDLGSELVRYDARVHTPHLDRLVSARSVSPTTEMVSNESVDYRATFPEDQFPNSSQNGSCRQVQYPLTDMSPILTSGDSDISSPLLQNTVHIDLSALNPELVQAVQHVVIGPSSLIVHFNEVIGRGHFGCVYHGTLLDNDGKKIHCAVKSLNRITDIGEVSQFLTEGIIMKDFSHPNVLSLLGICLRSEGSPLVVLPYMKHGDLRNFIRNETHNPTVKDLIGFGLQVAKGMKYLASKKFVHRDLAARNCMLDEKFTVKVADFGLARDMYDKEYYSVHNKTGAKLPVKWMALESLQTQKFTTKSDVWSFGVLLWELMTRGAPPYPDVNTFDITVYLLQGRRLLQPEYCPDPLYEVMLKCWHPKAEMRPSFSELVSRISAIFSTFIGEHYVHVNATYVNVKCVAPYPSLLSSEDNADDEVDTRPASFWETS

| Structure (SMILES) | Kd (Axl) | Kd (Mer) | Kd (TYRO3) | Kd (Met) |
| --- | --- | --- | --- | --- |
| CCOc1cn(-c2ccc(F)cc2C)nc1C(=O)Nc1ccc(Oc2ccnc3cc(OC)c(OC)cc23)cc1CO [Compound 119] | 100 to 1000 nM | 100 to 1000 nM | 100 to 1000 nM | 100 to 1000 nM |
| CCOc1cn(-c2nccnc2F)nc1C(=O)Nc1ccc(Oc2ccnc3cc(OC)c(OC)cc23)cn1 [Compound 178] | < 100 nM | < 100 nM | < 100 nM | < 100 nM |
| CCC(C)Oc1cc2nccc(Oc3ccc(NC(=O)c4nn(-c5cnc(N)nc5)cc4OCC(F)(F)F)nc3)c2cc1OC (stereo not shown) [Compound 235] | < 100 nM | < 100 nM | < 100 nM | 100 to 1000 nM |
| CCOc1cn(-c2cnc(N)cn2)nc1C(=O)Nc1ccc(Oc2ccnc3cc(OC)c(OC)cc23)cn1 [Compound 136] | < 100 nM | < 100 nM | < 100 nM | < 100 nM |
| CCOc1cn(-c2cncnc2C(C)C)nc1C(=O)Nc1ccc(Oc2ccnc3cc(OC)c(OC)cc23)cn1 [Compound 166] | < 100 nM | < 100 nM | < 100 nM | < 100 nM |
| CCOc1cn(-c2ccc(F)cc2C)nc1C(=O)Nc1csc(Oc2ccnc3cc(OC)c(OC)cc23)n1 [Compound 122] | ≥ 1000 nM | ≥ 1000 nM | ≥ 1000 nM | ≥ 1000 nM |
| CCOc1cn(-c2ccc(F)cc2C)nc1C(=O)Nc1ccc(Oc2ccnc3cc(OC)c(OC)cc23)c(NC(C)C)c1 [Compound 91] | 100 to 1000 nM | 100 to 1000 nM | 100 to 1000 nM | ≥ 1000 nM |
| CCOc1cnn(CC2CCO2)c1C(=O)Nc1ccc(Oc2ccnc3cc(OC)c(OC)cc23)cn1 (stereo not shown) [Compound 51] | 100 to 1000 nM | 100 to 1000 nM | ≥ 1000 nM | 100 to 1000 nM |
| CCOc1cn(-c2cnc(C#N)cn2)nc1C(=O)Nc1ccc(Oc2ccnc3cc(OC)c(OC)cc23)cn1 [Compound 54] | ≥ 1000 nM | ≥ 1000 nM | ≥ 1000 nM | ≥ 1000 nM |
| CCOc1cnn(C2CCNC2)c1C(=O)Nc1ccc(Oc2ccnc3cc(OC)c(OC)cc23)cn1 (stereo not shown) [Compound 71] | ≥ 1000 nM | 100 to 1000 nM | ≥ 1000 nM | 100 to 1000 nM |
| CCOc1cn(-c2ncc(Cl)cc2CN(C)C)nc1C(=O)Nc1ccc(Oc2ccnc3cc(OC)c(OC)cc23)cn1 [Compound 138] | 100 to 1000 nM | < 100 nM | 100 to 1000 nM | < 100 nM |
| CCOc1cn(-c2cncc(C)n2)nc1C(=O)Nc1ccc(Oc2ccnc3cc(OC)c(OC)cc23)cn1 [Compound 157] | < 100 nM | < 100 nM | ≥ 1000 nM | < 100 nM |
| CCOc1cn(Cc2cccnc2)nc1C(=O)Nc1ccc(Oc2ccnc3cc(OC)c(OC)cc23)cn1 [Compound 83] | < 100 nM | < 100 nM | 100 to 1000 nM | < 100 nM |
| CCOc1cn(-c2cncnc2)nc1C(=O)Nc1ccc(Oc2ccnc3cc(OC)c(OC)cc23)cn1 [Compound 2] | < 100 nM | < 100 nM | < 100 nM | < 100 nM |
| COCCOc1cnn(-c2cnc(N)nc2)c1C(=O)Nc1ccc(Oc2ccnc3cc(OC)c(OC)cc23)cn1 [Compound 245] | ≥ 1000 nM | 100 to 1000 nM | ≥ 1000 nM | ≥ 1000 nM |
| CCOc1cnn(-c2cnc(N)nc2)c1C(=O)Nc1ccc(Oc2ccnc3cc(OC(C)C)c(OC)cc23)cc1F [Compound 232] | 100 to 1000 nM | 100 to 1000 nM | ≥ 1000 nM | ≥ 1000 nM |
| CCOc1cn(-c2ccc(F)cc2C)nc1C(=O)Nc1ccc(Oc2ccnc3cc(OC)c(OC)cc23)cc1C(F)(F)F [Compound 109] | 100 to 1000 nM | ≥ 1000 nM | ≥ 1000 nM | 100 to 1000 nM |
| CCOc1cnn(CC2CCCN(C)C2)c1C(=O)Nc1ccc(Oc2ccnc3cc(OC)c(OC)cc23)cc1F (stereo not shown) [Compound 216] | 100 to 1000 nM | 100 to 1000 nM | ≥ 1000 nM | 100 to 1000 nM |
| COc1cc2nccc(Oc3ccc(NC(=O)c4nn(-c5ccc(F)c(Cl)c5)cc4OCC(F)(F)F)nc3)c2cc1OC [Compound 278] | < 100 nM | < 100 nM | 100 to 1000 nM | 100 to 1000 nM |
